Data on 2 substances can be found in patent publication US8673585B2, “Biochemical serum marker” (Biouniversa S.r.l., priority 2009, dated 2014).

The subject of assay [1] is J774 cells. The experiment in a line: Binding of FITC-conjugated recombinant BAG3 to the cell surface (confocal microscopy). Format: cell-based, murine. To be noted: FITC-conjugated protein added to the culture medium for 1 hour. How it is done: The BAG3 recombinant protein was then conjugated to FITC using the FluoroTag FITC Conjugation Kit (Sigma). Equal amounts of BSA-FITC (negative control) and rBAG3-FITC were added to the culture medium for 1 hour. Cells were then fixed with a solution of 3.7% formaldehyde and analyzed by a Zeiss LSM confocal microscope.
Binding of the BAG3 protein to the surface of J774 cells was confirmed by use of the recombinant protein conjugated with a fluorophore. BAG3 binding is specific because it is not observed when other proteins, for example BSA, are used instead of BAG3.

Assay [2] has as its system J774 cells. The experiment in a line: Macrophage activation assay: production of nitrites in the culture medium (Griess reagent). Format: cell-based, murine. Here is the method:
The recombinant BAG3 protein was used for macrophage activation assays, in order to determine the possible role on blood cells of the protein released in the serum. For this purpose, the murine monocyte J774 cell line was treated with different concentrations of the recombinant BAG3 protein, using a pro-inflammatory agent such as lipopolysaccharide (LPS) as a positive control. J774 cells were plated at 60% confluence and incubated for 24 h with the recombinant BAG3 protein at concentrations of 250, 500 ng/ml and 1 mg/ml, alone or in combination with LPS at a concentration of 10 ng/ml.
Moreover the production of nitrites in the culture medium, which correlates with monocyte activation, was verified with the Griess reagent (1% sulfanilamide, 0.1% naftilethylenediamine, 5% phosphoric acid) and measured in a Beckman DU-62 spectrophotometer at 550 nM (FIG. 9b).

As to “bovine serum albumin [BSA, reference compound]”, the “binding to the surface of J774 cells” value in the assay on J774 cells [1] is recorded as “not observed”.
As for “recombinant BAG3 protein: Recombinant human BAG3 protein expressed in E. coli, His-tagged, purified by affinity chromatography; FITC-conjugated for the binding test”, in the assay on J774 cells [2] (24 h, 500 ng/ml, p<0.001, FIG. 9b), the “production of nitrites compared to the control (untreated cells)” value is reported as “increased three-fold”. The “dose dependence of activity (iNOS expression and nitrites)” value in the assay with J774 cells [2] (24 h, 250, 500 ng/ml and 1 mg/ml, FIGS. 9a and b) is reported as “dose-dependent”. In addition, in the assay on J774 cells [1], the “binding to the surface of J774 cells” value was “confirmed”.
